Assay results as given in patent US20070015830A1, “Use of a retinoid type compound to modulate in vivo the decoupling activity of the protein UCP2” (priority 1997, published 2007).
Entries after “also recorded” stand apart in the source; their conditions may differ.

Legend:
[1] = biological target: T1, UCP2 protein (Mus musculus, UniProt P70406); experiment: Respiration stimulation factor in mitochondria of recombinant yeast expressing UCP2; assay type: biochemical, mice; conditions: for activation of the activity of UCP2 protein: pH not stated
T1 construct: lacking the untranslated regions 5′ and 3′ is obtained by enzymatic amplification; expressed in transfected cells; host or cells: Saccharomyces cerevisiae diploid W303, vector pYeDP-1/8-10; isolated mitochondria
T1 sequence (P70406 1-309): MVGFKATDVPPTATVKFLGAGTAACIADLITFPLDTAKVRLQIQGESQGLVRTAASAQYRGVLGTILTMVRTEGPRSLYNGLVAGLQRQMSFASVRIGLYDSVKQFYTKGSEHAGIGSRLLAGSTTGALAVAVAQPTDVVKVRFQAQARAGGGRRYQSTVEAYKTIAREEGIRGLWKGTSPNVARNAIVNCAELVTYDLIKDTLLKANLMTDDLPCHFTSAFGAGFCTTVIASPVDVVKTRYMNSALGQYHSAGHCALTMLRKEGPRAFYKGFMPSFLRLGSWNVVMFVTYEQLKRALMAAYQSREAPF
Source text: The effect of this type of compounds particularly on the activity of UCP2 protein, has been shown on a yeast model. The test consists in constructing yeast layers of recombinant Saccharomyces cervisiae yeasts being capable of expressing UCP2 protein, extracting UCP2 proteins from the mitochondria and measuring the activity of UCP2 protein in the presence or in the absence of retinoic acid. In the model which has been retained, the uncoupling activity of the UCP2 proteins is quantitatively measured by means of the factor of stimulation of respiration.
(§1) This factor corresponds to the ratio of respiration and baseline respiration, measured or in the absence of retinoic acid (when measurements are made at a constant pH but varying the concentration of retinoic acid) or at pH 6.8 (when measurements are made at a given concentration of retinoic acid, but varying the pH).
(§2) Respiration is determined by measurement of the quantity of consumed oxygen, expressed in nanomoles of oxygen per minute and milligram of mitochondrial proteins, the consumption of oxygen being directly linked to the quantity of substrate having been consumed by the mitochondria (in calories).
The cDNA of UCP2 proteins of mice (C. Fleury et al. (1997) Uncoupling protein-2: A novel gene linked to obesity and hyperinsulinaemia, Nature Genetics, 15, 269-272) lacking the untranslated regions 5′ and 3′ is obtained by enzymatic amplification with the following oligonucleotides:
The resulting DNA product is repaired with a Kleenow enzyme, thereafter cut with EcoRl and Sacl. This forces donation in the pYeDP-1/8-10 vector. In each case, the insertion of cDNA encoding for UCP2 protein in the pYeDP vector has been sequenced so as to verify that the encoding sequence had the expected properties. The UCP2-expressing pYeDP-YCP vector is introduced in a diploid W303 strain of Saccharomyces cervisiae yeast ([…]; ade2-10; his3-11,15; leu2-3,112; ura3-1; canl-100; trp-) by electroporation and the transformants are selected for their […].
A process derived from that described by Guérin et al. (Guérin B., Labbe P. et Somlo, M. (1979) Methods Enzymol; 55, 149-159) is used. 36 hours before the extraction of the mitochondria a pre-culture in SP-medium (0.67% o nitrogenated yeast base, 0.1% KH2PO4, 0.12% (NH4)2SO4, 0.1% glucose, 2% lactic acid, 0.1% casaminoacids, 20 mg/l triptophane, 40 mg/1 adenine of pH 4.5), 10 or 12 hours before the extraction, a dilution in SP-medium (2% galactose, 0.67% nitrogenated yeast base, 0.1% casaaminoacids, 20 mg/l triptophane and […] adenine, at an optical density of 0.35-0.4).
Protoplasts are prepared by enzymatic digestion with cytohelicase and the mitochondria are isolated by differential centrifugation after homogenization of the protoplasts obtained by enzymatic digestion of the cell wall.
Only quantitative measurement of mitochondrial respiration has been made for UCP2. This measurement is made at 20° C. in an oxygen-electrode chamber (Clark electrode) commercialized by the company HANSATECH. The incubation medium contains 0.65M mannitol, […] Tris/Maleate, 0.5 mM EGTA, 2 mM MgC12, 10 mMK2hpo4, 1 mg/ml ([…]) albumin pH6.8).
Mitochondria concentration is 0.15 mg/ml. NADH (3 mM) is used as substrate as mitochondria of Saccharomyces cervisiae are capable of oxidizing NADH of external origin).
The tests are performed varying any of the pH or the terinoïc acid concentration in the medium. The concentrations of free retinoic acid are esteemed up to some tens of nanomars (determined by fixing the molar ratio retinoic acid:albumin). The concentration of albumin is 0.1 mg/ml […]) in the respiration buffer and the tested pH are respectively 6.8; 7.1; 7.3 or 7.5. The further components of the buffer are identical to those in example 1 and in the same concentrations.

[2] = biological target: T1, UCP2 protein; experiment: as above; assay type: biochemical, mice; conditions: FIG. 5; molar ratio acid:albumin 3:1 and 4:1
[3] = biological target: T2, UCP1 protein (Rattus norvegicus, UniProt P04633); experiment: Respiration stimulation factor in mitochondria of recombinant yeast expressing UCP1; assay type: biochemical
T2 construct: The cDNA of the UCP1 protein which lacks the untranslated regions at 3′ and 5′ is obtained by enzymatic amplification; expressed in transfected cells; host or cells: Saccharomyces cerevisiae, vector pYeDP-1/8-10 (plasmid pYeDP-UCP+); isolated mitochondria
T2 sequence (P04633 1-307): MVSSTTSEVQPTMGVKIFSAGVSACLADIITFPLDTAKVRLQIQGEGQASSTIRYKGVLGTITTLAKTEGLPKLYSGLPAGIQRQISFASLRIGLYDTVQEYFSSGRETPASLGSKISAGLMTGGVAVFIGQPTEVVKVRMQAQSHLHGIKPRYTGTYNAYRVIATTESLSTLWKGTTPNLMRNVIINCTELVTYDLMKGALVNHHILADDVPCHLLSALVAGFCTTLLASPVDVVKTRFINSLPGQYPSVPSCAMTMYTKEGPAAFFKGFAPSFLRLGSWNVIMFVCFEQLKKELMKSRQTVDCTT
Experimental: as §1, §2
FIG. 2 represents a curve of response of yeast mitochondria to retinoic acid. In the abscissa, there appears the molar ratio of retinoic acid/albumin (albumin concentration: 1 micromole within the medium); in the ordinate, there appears the factor of stimulation of the baseline respiration. FIG. 2a was obtained at pH 6.8 and figure at pH 7.3.
The construction of the expression vectors, the recombinant Saccharomyces cervisiae strains, the preparation of the mitochondria and the measurement of the activity of the UCP1 protein are described in the publication of Arechaga et al. already cited in example 1. […]

[4] = biological target: T2, UCP1 protein; experiment: Membrane potential of yeast mitochondria expressing UCP1; assay type: biochemical; conditions: FIG. 6b, molar ratio retinoic acid:albumin 2:1 and 4:1
Source text: There is also a qualitative method for determining the uncoupling activity of an UCP protein. It is the measurement of the mitochondrial membrane potential the reduction of which is an evidence of the decrease of the quality of the recovery of chemical energy at the level of the mitochondria. Activation of an uncoupling protein is reflected by de decrease of the membrane potential followed by an acceleration of the respiration.
FIG. 6 evidences the variation in the membrane potentials and respiration of mitochondria in yeasts (reflecting the uncoupling activity of UCP1 protein) under the effect of the retinoic acid. The upper curve reflects oxygen consumption (expressed in nanomoles of oxygen per minute per milligram of mitochondrial proteins) and the lower curve the membrane potentials. […]
This activity may be measured qualitatively or quantitatively, with the help of the parameters: • qualitatively: • The mitochondrial membrane potential; the increase of the activity of an uncoupling protein is reflected by a reduction of the membrane potential and a resulting increase in oxygen consumption. In turn, the increase corresponds to an increase in dissipation of energy. • quantitatively: • mitochondrial respiration (oxygen consumption) which is linked directly to the quantity of substrate consumed by the mitochondria. […]

[5] = system: yeast mitochondria lacking UCP proteins; experiment: Membrane potential of yeast mitochondria lacking UCP proteins (control); assay type: biochemical, Saccharomyces cervisiae; conditions: FIG. 6a
Source text: FIG. 6 evidences the variation in the membrane potentials and respiration of mitochondria in yeasts (reflecting the uncoupling activity of UCP1 protein) under the effect of the retinoic acid. The upper curve reflects oxygen consumption (expressed in nanomoles of oxygen per minute per milligram of mitochondrial proteins) and the lower curve the membrane potentials. FIG. 6a corresponds to measurements made in yeast mitochondria lacking UCP proteins and FIG. 6b corresponds to measurements made in yeast mitochondria wherein UCP1 protein is expressed. • N: designates the addition of NADH (respitation substrate) • R: designates the addition of retinoic acid (respectively at a molar ratio retinoic acid:albumin of 2:1 and 4:1) • G: designates the addition of 1 millimolar guanosine diphosphate (an inhibitor of UCP1 protein).

## CC1=CC(=O)CC(C)(C)C1(O)/C=C/C(C)=C\C(=O)O (centres unmarked) [abscissic acid]
[1]
  activation of the activity of UCP2 protein: No activation

## CCCCC/C=C\C/C=C\C/C=C\C/C=C\CCCC(=O)O [arachidonic acid]
[1]
  activation of the activity of UCP2 protein: No activation

## CCCCCCCCCCCCCCCC(=O)O [palmitic acid]
[1]
  activation of the activity of UCP2 protein: does not have any effect; also recorded: not the case
[2]
  change of UCP2 activity with the pH and the increase of the concentration of palmitic acid: slight increase

## CC1=C(/C=C/C(C)=C/C=C/C(C)=C/C(=O)O)C(C)(C)CCC1 [retinoic acid, all-trans retinoic acid]
[1]; molar ratio retinoic acid/albumin 3:1 vs 4:1, FIGS. 4a and 4b
  change of the activity of UCP2 protein when the concentration of retinoic acid increases: slight increase
[1]; pH 6.8, FIG. 2a
  increase of the activity of UCP2 (respiration stimulation factor): no notable increase; also recorded: not the case
[1]; pH 7.3, FIG. 2b
  increase of the activity of UCP2 (respiration stimulation factor): the increase is very sensitive
[1]
  activation of the activity of UCP2 protein: activates the dissipation of energy by UCP2
[3]; pH 6.8, FIG. 2a
  response of UCP1 protein (respiration stimulation factor): responds
[3]; pH not stated, FIG. 3a for palmitic acid
  response / uncoupling activity of UCP1 protein: capable of increasing the uncoupling activity
[4]
  effect on mitochondrial membrane potential: induces a reduction of the membrane potential
[5]
  effect on mitochondrial membrane potential: not observed

## CC1=C(/C=C/C(C)=C/C=C/C(C)=C/CO)C(C)(C)CCC1 [retinol]
[1]
  activation of the activity of UCP2 protein: No activation

## O=C(O)c1ccccc1O [salicylic acid]
[1]
  activation of the activity of UCP2 protein: No activation
